Source: ChEMBL document CHEMBL1201862, “PubChem BioAssay data set” (2004)
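Cultured in 96-well plates, cells were exposed to test compound for 48 hours across five concentrations. GI50 marks 50% less growth.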 Active and inactive are the calls of the source. Cut-off read from the data, not from the text of the source: active = GI50 up to about 1.1 µM and inactive = higher.

Legend:
Assay in all cases: DTP human tumour cell line panel, 48 h
ACHN = test system: ACHN
CAKI-1 = test system: CAKI-1
COLO 205 = test system: COLO 205
DMS-114 = test system: DMS-114
DMS-273 = test system: DMS-273
EKVX = test system: EKVX
HCC 2998 = test system: HCC 2998
HCT-116 = test system: HCT-116
HCT-15 = test system: HCT-15
HOP-18 = test system: HOP-18
HOP-62 = test system: HOP-62
HT-29 = test system: HT-29
IGROV-1 = test system: IGROV-1
K562 = test system: K562
KM-20L2 = test system: KM-20L2
KM12 = test system: KM12
LOX IMVI = test system: LOX IMVI
LXFL 529 = test system: LXFL 529
M14 = test system: M14
M19-MEL = test system: M19-MEL
MOLT-4 = test system: MOLT-4
Malme-3M = test system: Malme-3M
NCI-H226 = test system: NCI-H226
NCI-H23 = test system: NCI-H23
NCI-H460 = test system: NCI-H460
NCI-H522 = test system: NCI-H522
OVCAR-3 = test system: OVCAR-3
OVCAR-4 = test system: OVCAR-4
OVCAR-5 = test system: OVCAR-5
OVCAR-8 = test system: OVCAR-8
RPMI-8226 = test system: RPMI-8226
RXF 393 = test system: RXF 393
RXF 631 = test system: RXF 631
SF-268 = test system: SF-268
SF-295 = test system: SF-295
SK-MEL-28 = test system: SK-MEL-28
SK-MEL-2 = test system: SK-MEL-2
SN12C = test system: SN12C
SNB-19 = test system: SNB-19
SNB-78 = test system: SNB-78
SR = test system: SR
SW-620 = test system: SW-620
TK-10 = test system: TK-10
U-251 = test system: U-251
UACC-62 = test system: UACC-62
UO-31 = test system: UO-31
XF498 = test system: XF498
786-0 = test system: 786-0
A498 = test system: A498
A549 = test system: A549
CCRF-CEM = test system: CCRF-CEM
DLD-1 = test system: DLD-1
HL-60 = test system: HL-60
SF-539 = test system: SF-539
SK-MEL-5 = test system: SK-MEL-5
SK-OV-3 = test system: SK-OV-3
SNB-75 = test system: SNB-75
UACC-257 = test system: UACC-257

O=C(c1ccccc1)[C@H]1Nc2ccc(Cl)cc2[C@H]2OCCC[C@@H]12
GI50 (ACHN): 31.3 µM (inactive)
GI50 (CAKI-1): 23 µM (inactive)
GI50 (COLO 205): 21.5 µM (inactive)
GI50 (DMS-114): 14.2 µM (inactive)
GI50 (DMS-273): 19.3 µM (inactive)
GI50 (EKVX): 23.4 µM (inactive)
GI50 (HCC 2998): 22.2 µM (inactive)
GI50 (HCT-116): 16.3 µM (inactive)
GI50 (HCT-15): 23.1 µM
GI50 (HOP-18): 18.5 µM (inactive)
GI50 (HOP-62): 18 µM (inactive)
GI50 (HT-29): 18.5 µM (inactive)
GI50 (IGROV-1): 39 µM (inactive)
GI50 (K562): 22.6 µM (inactive)
GI50 (KM-20L2): 16.7 µM (inactive)
GI50 (KM12): 19 µM (inactive)
GI50 (LOX IMVI): 16.7 µM (inactive)
GI50 (LXFL 529): 12.1 µM (inactive)
GI50 (M14): 17.5 µM (inactive)
GI50 (M19-MEL): 23 µM (inactive)
GI50 (MOLT-4): 16.8 µM (inactive)
GI50 (Malme-3M): 25.6 µM (inactive)
GI50 (NCI-H226): 21.3 µM (inactive)
GI50 (NCI-H23): 24.7 µM (inactive)
GI50 (NCI-H460): 18 µM (inactive)
GI50 (NCI-H522): 14.1 µM (inactive)
GI50 (OVCAR-3): 14.9 µM (inactive)
GI50 (OVCAR-4): 20.7 µM (inactive)
GI50 (OVCAR-5): 15.9 µM (inactive)
GI50 (OVCAR-8): 20.9 µM (inactive)
GI50 (RPMI-8226): 19.3 µM (inactive)
GI50 (RXF 393): 17.3 µM (inactive)
GI50 (RXF 631): 17.9 µM (inactive)
GI50 (SF-268): 19 µM (inactive)
GI50 (SF-295): 17 µM (inactive)
GI50 (SK-MEL-28): 18.2 µM (inactive)
GI50 (SK-MEL-2): 25.4 µM (inactive)
GI50 (SN12C): 19.7 µM (inactive)
GI50 (SNB-19): 27.6 µM (inactive)
GI50 (SNB-78): 24.1 µM (inactive)
GI50 (SR): 26.1 µM (inactive)
GI50 (SW-620): 17.3 µM (inactive)
GI50 (TK-10): 28.5 µM (inactive)
GI50 (U-251): 17.3 µM (inactive)
GI50 (UACC-62): 17.8 µM (inactive)
GI50 (UO-31): 15.9 µM (inactive)
GI50 (XF498): 19.5 µM (inactive)

COc1ccc(S(=O)(=O)N/N=C(\C)CN2C(=O)c3ccccc3C2=O)cc1
GI50 (786-0): > 100 µM (inactive)
GI50 (A498): > 100 µM (inactive)
GI50 (A549): > 100 µM (inactive)
GI50 (ACHN): > 100 µM (inactive)
GI50 (CAKI-1): > 100 µM (inactive)
GI50 (CCRF-CEM): > 100 µM (inactive)
GI50 (COLO 205): > 100 µM (inactive)
GI50 (DLD-1): > 100 µM (inactive)
GI50 (DMS-114): > 100 µM (inactive)
GI50 (DMS-273): > 100 µM (inactive)
GI50 (EKVX): > 100 µM (inactive)
GI50 (HCC 2998): > 100 µM (inactive)
GI50 (HCT-116): > 100 µM (inactive)
GI50 (HCT-15): > 100 µM
GI50 (HL-60): > 100 µM (inactive)
GI50 (HOP-18): > 100 µM (inactive)
GI50 (HOP-62): > 100 µM (inactive)
GI50 (HT-29): > 100 µM (inactive)
GI50 (IGROV-1): > 100 µM (inactive)
GI50 (K562): > 100 µM (inactive)
GI50 (KM-20L2): > 100 µM (inactive)
GI50 (KM12): > 100 µM (inactive)
GI50 (LOX IMVI): > 100 µM (inactive)
GI50 (LXFL 529): > 100 µM (inactive)
GI50 (M14): > 100 µM (inactive)
GI50 (M19-MEL): > 100 µM (inactive)
GI50 (MOLT-4): > 100 µM (inactive)
GI50 (Malme-3M): > 100 µM (inactive)
GI50 (NCI-H226): > 100 µM (inactive)
GI50 (NCI-H23): > 100 µM (inactive)
GI50 (NCI-H460): > 100 µM (inactive)
GI50 (NCI-H522): > 100 µM (inactive)
GI50 (OVCAR-3): > 100 µM (inactive)
GI50 (OVCAR-4): > 100 µM (inactive)
GI50 (OVCAR-5): > 100 µM (inactive)
GI50 (OVCAR-8): > 100 µM (inactive)
GI50 (RPMI-8226): > 100 µM (inactive)
GI50 (RXF 631): > 100 µM (inactive)
GI50 (SF-268): > 100 µM (inactive)
GI50 (SF-295): > 100 µM (inactive)
GI50 (SF-539): > 100 µM (inactive)
GI50 (SK-MEL-28): > 100 µM (inactive)
GI50 (SK-MEL-2): > 100 µM (inactive)
GI50 (SK-MEL-5): > 100 µM (inactive)
GI50 (SK-OV-3): > 100 µM (inactive)
GI50 (SN12C): > 100 µM (inactive)
GI50 (SNB-19): > 100 µM (inactive)
GI50 (SNB-75): > 100 µM (inactive)
GI50 (SNB-78): > 100 µM (inactive)
GI50 (SR): > 100 µM (inactive)
GI50 (SW-620): > 100 µM (inactive)
GI50 (TK-10): > 100 µM (inactive)
GI50 (U-251): > 100 µM (inactive)
GI50 (UACC-257): > 100 µM (inactive)
GI50 (UACC-62): > 100 µM (inactive)
GI50 (UO-31): > 100 µM (inactive)
